Earlier results as cited in US20050118265A1, “Antifungal oral dosage forms and the methods for preparation” (priority 2003, published 2005).

What was measured:
[1] = pH 8.1
[2] = based on extrapolation of values obtained from methanolic solutions

log (n-octanol/water) partition coefficient [1]: 5.66
solubility in alcohol (alcohol): very slightly soluble
solubility in dichloromethane (dichloromethane): freely soluble
solubility in ethanol (ethanol alone): poorly soluble
solubility in water (water): insoluble
pKa [2]: 3.70
Compound: CCC(C)n1ncn(-c2ccc(N3CCN(c4ccc(OCC5COC(Cn6cncn6)(c6ccc(Cl)cc6Cl)O5)cc4)CC3)cc2)c1=O (racemic) [Itraconazole, (±)-1-[(RS)-sec-butyl]-4-[p-[4-[p-[[(2R,4S)-2-(2,4-dichlorophenyl)-2-(1H-1,2,4-triazol-1-ylmethyl)-1,3-dioxolan-4-yl]methoxy]phenyl]-1-piperazinyl]phenyl]-Ä 2-1,2,4-triazolin-5-one]
